The subject of data set [1] is brain metastases from breast or lung cancer. As to conditions: cited from earlier work.
The test system of data set [2] is MDA231-BrM2 cells (brain metastatic lesions). Nature of the data set: Established brain metastasis treatment, starting 14 days after inoculation with MDA231-BrM2 cells, BLI. In kind it is in vivo, mice. As to conditions: for progression of brain metastatic lesions (BLI): treatment from day 14, 35-day end point, Tonabersat 10 mg/kg, meclofenamate 20 mg/kg, carboplatin 50 mg/kg/5 days, FIG. 5h,i. The method, then: (§1) All experiments using animals were done in accordance to protocols approved by the MSKCC Institutional Animal Care and Use Committee. Athymic NCR nu/nu mice (NCI-Frederick), Cr:NIH bg-nu-xid mice (NCI-Frederick) and B6129SF1/J mice (Jackson Laboratory) were use at 5-6 weeks of age. For long-term brain metastasis assays we followed previously described procedures (Bos, Nguyen et al. 2010). In brief, 10^4 MDA231-BrM2 cells, 5×10^4 H2030-BrM3 cells, or 10^5 393N1 cells suspended in 100 μl of PBS were injected into the left cardiac ventricle. At the experimental endpoint, anesthetized mice (ketamine 100 mg/kg, xylazine 10 mg/kg) were injected retro-orbitally with D-luciferin (150 mg/kg), and brain colonization was quantified by ex vivo Bio-luminescent imaging (BLI). For short-term (7-day and 14-day) brain metastasis experiments, we injected 5×10^5 cells. TRITC dextran (70 KD) (Life Technologies) was intravenously injected to stain vascular structures. For inducible knockdown experiments, mice were given doxycycline hyclate (Sigma-Aldrich) in the drinking water (2 mg/mL) and the diet (Harlan) 14 days after injection of cancer cells. For lung colonization assays, 2×10^5 MDA231-BrM2 cells in 100 piL PBS were injected into the lateral tail vein. For orthotopic tumour implantation, 5×10^3 cells in 50 piL of 1:1 mix of PBS/growth factor reduced matrigel (BD Biosciences) were injected into the 4th right mammary fat pad of female mice. For drug treatment experiments, mice were intraperitoneally injected with carboplatin (Hospira) (50 mg/kg/5 days), Tonabersat (MedChem Express) (10 mg/kg/day), or meclofenamic acid sodium salt (Sigma-Aldrich) (20 mg/kg/day). Vehicle (10% DMSO in Polyethylene glycol 400) was used in control mice. BLI was performed using an IVIS Spectrum Xenogen instrument (Caliper Life Sciences) and analysed using Living Image software, v. 2.50. For brain metastasis assays, 8-10 mice were used in each group. For drug treatment experiments, mice were inoculated with cancer cells and randomly assigned to treatment groups. Gap junction modulators and chemotherapeutic agents were blindly administered in the MSKCC Antitumour Assessment Core.

For data set [3] the following is noted: after systemic administration; cited from earlier work.
The subject of another data set is Cx43 gap junction. The settings on record: cited from earlier work.
In data set [4] the test system is release of IFNα and TNFα in co-cultures of astrocytes and cancer cells. Nature of the data set: ELISA of IFNα and TNFα in conditioned media from MDA231-BrM2 cell and astrocyte co-cultures. In kind it is cell-based, human. The settings on record: FIG. 5b. The procedure: Cancer Cell and Astrocyte Co-Culture Experiments.
Astrocytes and cancer cells were mixed at ratio of 1:1. For apoptosis assays, overnight co-cultures were treated with 500 ng/ml sFasL (Peprotech) in serum free media, 500 nM carboplatin (Sigma-Aldrich) or 25 nM Paclitaxel (Sigma-Aldrich) for 24 h. Single cell suspensions were stained with APC-conjugated cleaved caspase 3 antibody (Cell Signaling), apoptotic GFP+ cancer cells were detected by flow cytometery. For translating ribosome affinity purification (TRAP), EGFP-L10a expressing cancer cells were co-cultured with astrocytes for 24 h. Following previously published protocols, (Heiman, Schaefer et al. 2008, Zhang, Jin et al. 2013) mRNA purified from cancer cells were was used for library construction with TruSeq RNA Sample Prep Kit v2 (Illumina) following the manufacturer's instructions. Samples were barcoded and run on a Hiseq 2000 platform in a 50 bp/50 bp paired-end run, using the TruSeq SBS Kit v3 (Illumina). An average of 50 million paired reads were generated per sample. For conditioned media analysis, media were collected after 24 h, and cytokines in the conditioned media were either identified using Human Cytokine Array (R&D systems) or measured by IFNα or TNFα ELISA kits (R&D systems). To detect the activity of IFNα or TNFα in the collected conditioned media, cancer cells were treated with the collected conditioned media for 2 h and phosphorylation status of STAT1 or NF-κB p65 was determined by western blotting. For cGAMP and […] activation experiments, cancer cells and astrocytes were co-cultured for 18 h. The phosphorylation status of TBK1, IRF3 was determined by western immunoblotting. Nuclear translocation of IRF3 was determined by immunofluorescence staining with Zeiss LSM 5 Live confocal microscopy. cGAMP levels were determined by LC-MS/MS.

Data set [5] deals with MDA231-BrM2 cells as lung metastatic lesions. In words: Lung colonization assay, MDA231-BrM2 cells, BLI. Format: in vivo, mice. The settings on record: FIG. 15d; same treatment from day 1. The procedure: as §1, with “For orthotopic tumour implantation, 5×10^3 cells in 50 piL of 1:1 mix of PBS/growth factor reduced matrigel (BD Biosciences) were injected into the 4th right mammary fat pad of female mice. For drug treatment experiments, mice were intraperitoneally injected with carboplatin (Hospira) (50 mg/kg/5 days), Tonabersat (MedChem Express) (10 mg/kg/day), or meclofenamic acid sodium salt (Sigma-Aldrich) (20 mg/kg/day). Vehicle (10% DMSO in Polyethylene glycol 400) was used in control mice.” left out, “2.50. For brain metastasis assays, 8-10 mice were used in each group. For drug treatment experiments, mice were inoculated with cancer cells and randomly assigned to treatment groups. Gap junction modulators and chemotherapeutic agents were blindly administered in the MSKCC Antitumour Assessment Core.” left out

The conditions of data set [6]: in vivo; cited from earlier work.
The test system of data set [7] is MDA231-BrM2 cells, H2030-BrM3 cells, KRas/p53-393N1 cells (brain metastases). In words: Brain metastasis assay, drug given daily from day 1 after arterial inoculation of cancer cells, BLI. In kind it is in vivo. As to conditions: treated from day 1; MDA231-BrM2 or H2030-BrM3 in immunodeficient mice, KRas/p53-393N1 in immunocompetent mice; Tonabersat 10 mg/kg/day, meclofenamate 20 mg/kg/day i.p. The procedure:
as §1, with “For orthotopic tumour implantation, 5×10^3 cells in 50 piL of 1:1 mix of PBS/growth factor reduced matrigel (BD Biosciences) were injected into the 4th right mammary fat pad of female mice. For drug treatment experiments, mice were intraperitoneally injected with carboplatin (Hospira) (50 mg/kg/5 days), Tonabersat (MedChem Express) (10 mg/kg/day), or meclofenamic acid sodium salt (Sigma-Aldrich) (20 mg/kg/day). Vehicle (10% DMSO in Polyethylene glycol 400) was used in control mice.” left out, “2.50. For brain metastasis assays, 8-10 mice were used in each group. For drug treatment experiments, mice were inoculated with cancer cells and randomly assigned to treatment groups. Gap junction modulators and chemotherapeutic agents were blindly administered in the MSKCC Antitumour Assessment Core.” left out

Data set [8] deals with MDA231-BrM2 cells as orthotopic tumours. Nature of the data set: Orthotopic tumour implantation in mammary fat pad, BLI. In kind it is in vivo, mice. The settings on record: FIG. 15c, same treatment. The procedure: as §1, with “For orthotopic tumour implantation, 5×10^3 cells in 50 piL of 1:1 mix of PBS/growth factor reduced matrigel (BD Biosciences) were injected into the 4th right mammary fat pad of female mice. For drug treatment experiments, mice were intraperitoneally injected with carboplatin (Hospira) (50 mg/kg/5 days), Tonabersat (MedChem Express) (10 mg/kg/day), or meclofenamic acid sodium salt (Sigma-Aldrich) (20 mg/kg/day). Vehicle (10% DMSO in Polyethylene glycol 400) was used in control mice.” left out, “2.50. For brain metastasis assays, 8-10 mice were used in each group. For drug treatment experiments, mice were inoculated with cancer cells and randomly assigned to treatment groups. Gap junction modulators and chemotherapeutic agents were blindly administered in the MSKCC Antitumour Assessment Core.” left out

A further data set has as its system epileptogenesis. As to conditions: in vivo; cited from earlier work.
For data set [9] the following is noted: cited from earlier work.
Data set [10] deals with gap junction dye transfer from astrocytes to MDA231-BrM2 cells. In words: Dye transfer assay (calcein) from astrocytes to cancer cells, flow cytometry. The settings on record: for dye transfer from astrocytes to cancer cells: MDA231-BrM2 cells, flow cytometry, FIG. 5a. Format: cell-based, human. The method, then: Dye Transfer and EdU Transfer Assays.
Monolayers of cancer cells or astrocytes were labeled with 2.5 gig/ml calcein Red-Orange AM dye (Life Technologies) at 37° C. for 30 min. Single cell suspensions were mixed at a ratio of 2:1 labeled:unlabeled cells for 6 h. Certain experiments used a mix of three cell populations, MDA231-BrM2 (GFP+), HBMEC (pre-labeled with Cell Proliferating Dye Fluor@670, eBioscience), and unlabeled astrocytes. Dye transfer was visualized by Zeiss LSM 5 Live confocal microscopy (20-min time-lapse) or quantified by FACSCalibur flow cytometry (BD Biosciences) at different time points. For DNA transfer assays, cancer cells were labeled overnight with EdU (10 μM, Molecular Probes) and maintained in culture for additional 3 days. Single cell suspensions of labeled cancer cells and astrocytes were mixed at 2:1 ratio for 6 h. EdU transfer was visualized using Zeiss LSM 5 Live confocal microscopy or quantified by FACSCalibur flow cytometry (BD Biosciences) following the manufacturer's instructions (Molecular Probes).

Data set [11] concerns trigeminal ganglion neuronal-satellite cell signaling. As to conditions: animal models; cited from earlier work.
Data set [12] concerns unique stereoselective binding site in astrocytes. As to conditions: cited from earlier work.
Data set [13] concerns cortical spreading depression. The settings on record: gap-junction-mediated pathophysiological process; cited from earlier work.

SMILES strings stand for the structures. Counter-ions that a name gives are not always drawn.

In the case of `N.N.O=C([O-])C1(C(=O)[O-])CCC1.[Pt+2]` [carboplatin], in data set [1], the “overall survival in patients with brain metastases” value is listed as “modest improvement in overall survival”. Besides, the “brain metastasis (BLI) in inducible shRNA experiment” value in data set [2] (carboplatin alone 50 mg/kg/5 days starting on day 14, compared with depletion of Cx43 or PCDH7, FIG. 5f,g) was “inhibited brain metastasis to a similar extent as depletion of Cx43 or PCDH7”. In addition, the “progression of brain metastatic lesions (BLI)” value (shortened to “progression”) in data set [2] is “minimally inhibited brain metastasis growth”. In data set [3], the “passage of the BBB” value was “crosses the BBB”.
As to `Cc1ccc(Cl)c(Nc2ccccc2C(=O)O)c1Cl` [meclofenamate, meclofenamic acid sodium salt], the “progression” value in [2] was “significantly inhibited progression of metastatic lesions”. In addition, the “Cx43 gap junction gating” value in the data set with Cx43 gap junction is “inhibits Cx43 gap junction gating”. In [4], the “release of IFNα in co-cultures” value is “inhibited” and the “release of TNFα in co-cultures” value is “inhibited”. In addition, the “growth of MDA231-BrM2 cells as lung metastatic lesions” value in [5] was “did not restrict growth”. The oral bioavailability entry in [6] is given as “orally bioavailable”. Besides, the “passage of the BBB” value in [3] was “passes the BBB”. For the same molecule, the “emergence of brain metastases (BLI)” value in data set [7] is “prevented the emergence of brain metastases”. In data set [8], the “growth of MDA231-BrM2 cells as orthotopic tumours” value is reported as “did not restrict growth”. The “epileptogenesis in animal models” value in the data set on epileptogenesis was “inhibits epileptogenesis”. Further, in data set [9] (in vivo), the systemic tolerability entry is “well tolerated systemically”. Moreover, the “dye transfer from astrocytes to cancer cells” value in data set [10] was “inhibited dye transfer”.
Regarding `CC(=O)c1ccc2c(c1)[C@H](NC(=O)c1ccc(F)c(Cl)c1)[C@H](O)C(C)(C)O2` [Tonabersat], in data set [11], the “trigeminal ganglion neuronal-satellite cell signaling” value is listed as “inhibits”. Also, the “binding to site in astrocytes” value in [12] is listed as “binds to a unique stereoselective binding site in astrocytes”. In addition, in data set [2], the “progression” value is reported as “significantly inhibited progression of metastatic lesions”. In addition, in [4], the “release of IFNα in co-cultures” value is “inhibited” and the “release of TNFα in co-cultures” value is listed as “inhibited”. In [5], the “growth of MDA231-BrM2 cells as lung metastatic lesions” value is “did not restrict growth”. The oral bioavailability entry in data set [6] is given as “orally bioavailable”. Besides, in [13], the cortical spreading depression entry is given as “inhibits”. For the same molecule, the “emergence of brain metastases (BLI)” value in data set [7] is “prevented the emergence of brain metastases”. For the same molecule, in data set [8], the “growth of MDA231-BrM2 cells as orthotopic tumours” value was “did not restrict growth”. Further, the “tolerability and safety in patients with migraine” value in data set [9] (patients with migraine) is “systemically well-tolerated and safe”. Besides, in [10], the “dye transfer from astrocytes to cancer cells” value was “inhibited dye transfer”.
`CC1(C)[C@@H](OC(=O)CCC(=O)O)CC[C@]2(C)[C@H]3C(=O)C=C4[C@@H]5C[C@@](C)(C(=O)O)CC[C@]5(C)CC[C@@]4(C)[C@]3(C)CC[C@@H]12` [carbenoloxone, carbenoxolone]: the “dye transfer from astrocytes to MDA231-BrM2 cells, compared with Cx43 depletion” value in data set [10] (Carbenoxolone 50 uM, FIG. 8b) is “extent of dye-transfer inhibition after Cx43 depletion was comparable”.

The values are drawn from patent publication US11058665B2, “Methods for treating brain metastasis” (MEMORIAL SLOAN-KETTERING CANCER CENTER, priority 2014, dated 2021).
